One data set concerns non-sensitized mice. Put plainly: PMB (native and conjugated forms) induced lethality, i.p. Format: in vivo, Male CB57BL/c mice. To be noted: intraperitoneal injection, lethality monitored for 7 days. As for the experimental part: (§1) As used herein the following definitions apply: • LD₀ is the highest non-toxic dose of PMB or its conjugate; • LD₁₀₀ is the dose of PMB or its conjugated form which results in 90-100% lethality when injected into a normal test animal; • PD₁₀₀ is the dose of polymyxin B or its conjugated form which, when injected into a hypersensitized test animal, results in at least 95 % survival; • Therapeutic Index (TI) is calculated by dividing LD₁₀₀ by PD₁₀₀.
PMB (native and conjugated forms) are evaluated for their inherent toxicity in non-sensitized mice. Male CB57BL/c mice (18-22 g, Jackson Labs) are used throughout this study. Animals are given either native PMB or conjugated PMB by intraperitoneal injection (0.5 ml/animal) and lethality is monitored for 7 days. The LD₁₀₀ is determined by varying the dose of PMB (native and conjugated forms) that result in 100 % lethality. From 10 to 20 animals are used for each dose.

Data set [1] in a line: Toxicity (lethality) after i.v. injection, Example 4. Format: in vivo. As for the experimental part:
The ultra-pure PMB-conjugate has an LD₀ of > 100 mg/kg and it has not been possible to establish an LD₁₀₀ due to its inherent non-toxicity. Comparisons in the table below are made between the highest non-toxic dose of PMB (native or conjugated): […]

The subject of another data set is endotoxin (0111B₄). Put plainly: PMB anti-endotoxin evaluation (endotoxin-induced lethality in galactosamine-hypersensitized mice), i.p. Format: in vivo, Male CB57BL/c mice. As for the experimental part:
as §1
Male CB57BL/c mice (18-22 g, Jackson Labs) are used throughout this study. Animals are given endotoxin (0111B₄ from List Biologicals, Palo Alto, CA, USA) and galactosamine to hypersensitize, as described in Galanos et al., Proc. Natl. Acad. Sci. USA 76 (1979) 5939. The endotoxin and galactosamine (320 mg/kg) are injected intraperitoneally in 0.5 ml pyrogen-free isotonic saline per animal between 13:00 and 15:00 to avoid diurnal variation. From a dose-response study, it is determined that 0.01 mg/kg endotoxin produces 85-95 % lethality. Animals are observed each day for 6 days after injection.
PMB (native and conjugated forms) are evaluated for their ability to neutralize endotoxin by either pre-mixing with endotoxin for 60 minutes before i.p. injection or by coadministration of the substances as a single i.p. injection. […]

The next data set concerns E.coli 0111B4 endotoxin. Put plainly: Endotoxin-induced lethality test, i.v. treatment, Example 4. Conditions: i.v. injection 1-3 minutes before an LD90 i.p. injection of E.coli 0111B4 endotoxin (0.5 µg/kg). Format: in vivo.

Consider polymyxin B [Native PMB], for which the LD₁₀₀ with non-sensitized mice was 25 mg/kg. In data set [1] (i.v.), this substance yielded an LD₁₀₀ i.v. of 9.5 mg/kg. Besides, in data set [1] (i.v. injection, lethality monitored over 7 days, highest non-toxic dose), the LD₀ was determined as 5 mg/kg. Also, the PD₁₀₀ in the data set with endotoxin (0111B₄) (PMB or conjugate allowed to react with the endotoxin for 60 min before i.p. injection) was 2 mg/kg; in the data set with endotoxin (0111B₄) (i.p., hypersensitized mice (galactosamine 320 mg/kg, endotoxin 0.01 mg/kg), pre-mixing or coadministration not stated for these rows), 2 mg/kg; in the data set with E.coli 0111B4 endotoxin, 0.1 mg/kg.

Values taken from patent EP0428486B1, “Polymyxin conjugates” (SANDOZ LTD., priority 1989, dated 1991).
